Measured values taken from patent publication US20240139166A1, “OPHTHALMIC COMPOSITIONS FOR PRESBYOPIA” (Sydnexis, Inc., priority 2021, published 2024).

Assay: Stability of pilocarpine in deuterated water (pilocarpic acid formation)
Assay type: physicochemical
Description: The stability of pilocarpine was tested over a range of concentrations. Pilocarpic acid formation, a major degradant of pilocarpine, was measured. […] The stability of pilocarpine, as measured by the percent of pilocarpic acid formation, was measured at different pH/pD values, as depicted in FIG. 2.

## CC[C@@H]1C(=O)OC[C@@H]1Cc1cncn1C [pilocarpine]
FIG. 1
  Stability (pilocarpic acid formation) in deuterated water versus non-deuterated water: improved stability in deuterated water as compared to non-deuterated water
  Stability (pilocarpic acid formation) over a range of pilocarpine concentrations: improved stability at higher concentrations of pilocarpine
  Stabilizing factor of deuterated water versus pilocarpine concentration: stabilizing factor increases as pilocarpine concentration decreases
FIG. 2
  Rate of pilocarpic acid formation at different pH/pD values: linear log/log relationship was identified between the log(rate of pilocarpic acid formation) and pH
